Source: paper PMC8355244, “A fragment-based approach identifies an allosteric pocket that impacts malate dehydrogenase activity” (Communications Biology, 2021)
Several values for one entry are separate records, joined by “and”; a condition that tells them apart may be missing. Identical values can stand only once. Like-named read-outs stand apart in the source and are kept apart here.

How the values were obtained:
WT PfMDH = target: T1, WT PfMDH (Plasmodium falciparum, UniProt Q6VVP7); experiment: 4PA dose-response inhibition of PfMDH; format: biochemical; conditions: for Slope / Response (Delta Abs[340 nm]/min): replicates
T1 construct: The full-length WT PfMDH gene was cloned into pETM-13; made in house; host or cells: E. coli Rosetta 2 (DE3) pLysS
T1 sequence (Q6VVP7 entry or part of it): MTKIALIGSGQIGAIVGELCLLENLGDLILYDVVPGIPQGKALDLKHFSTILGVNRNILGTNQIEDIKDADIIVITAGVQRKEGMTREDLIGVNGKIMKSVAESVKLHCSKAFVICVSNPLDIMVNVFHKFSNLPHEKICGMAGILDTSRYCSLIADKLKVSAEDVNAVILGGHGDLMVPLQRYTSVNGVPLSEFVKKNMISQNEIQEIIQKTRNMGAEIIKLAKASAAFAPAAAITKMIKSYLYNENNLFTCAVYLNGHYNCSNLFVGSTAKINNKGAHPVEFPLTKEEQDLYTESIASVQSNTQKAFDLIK
Description: (§1) The oxidation of malate to oxaloacetate was assayed spectrophotometrically in flat-bottomed Corning 96-well microplates in a total volume of 250.0 µl in 50 mM glycine buffer pH 10.2[24] with an additional 400 mM NaCl for protein stability. The increase of absorbance at 340 nm was recorded in kinetic mode using a Tecan Spark multimode microplate reader at 298 K. A mastermix of 50 mM NAD+ and 44 μM PfMDH was used for both the screening and kinetics experiments. The final concentration of protein and cofactor were […], respectively. Positive control groups were set (absence of compound) in the same plate as the treated group. The absorbance from the background noise was subtracted from the data and then a linear regression model was employed in order to get the line slope from the first 5 min of the reaction. The percentage of enzymatic activity has been calculated as described by Eq. (1)1 enzymeactivity(%)=slopetreated/slopepositivecontrol*100
While the fragment initially discovered was 4-(3,4-difluorophenyl) thiazol-2-amine, we decided to perform enzymatic and kinetic assays using a similar substructure 4-phenylthiazol-2-amine. 2× fold dilutions from a 200 mM stock solution of the compound in 100% DMSO was prepared for dose–response experiments. 3.3 µL of compound (DMSO in the case of positive control) were mixed with 233.9 µL mastermix of WT PfMDH previously incubated with 3 mM NAD + using a multichannel pipette. The final conditions tested were a maximum of 2.5 mM of 4PA at 1.32% (v/v) final DMSO concentration. The microplate was incubated for 15 min at 25.35 °C and the reaction started with the addition of 13.0 µL of 5 mM L-malate.

PfMDH = target: T2, PfMDH (Plasmodium falciparum, UniProt Q6VVP7); experiment: Kinetics experiment with varying L-malate, substrate inhibition model; format: biochemical; design: unit not given here; conditions: malate 5 mM, replicates
T2 construct: The full-length WT PfMDH gene was cloned into pETM-13; made in house; host or cells: E. coli Rosetta 2 (DE3) pLysS
T2 sequence (Q6VVP7 entry or part of it): as above
Description: as §1
Kinetics experiments were performed by mixing 1.3 µL of compound stock solutions from 12.5 and 25 mM of 4PA in 100% DMSO with 223.8 µL mastermix of PfMDH previously incubated in ice with 3 mM NAD+ for 30 min. […] Kinetic constants Km (mM) and Vmax (U * mg^−^1) and Ki (mM) were quantified with GraphPad Prism version 8.0 according to the substrate inhibition Eq. (2)[52].2 Y=Vmax*X/(Km+X^*(1+X/Ki))

SMILES: Nc1nc(-c2ccccc2)cs1 [4PA, 4-phenylthiazol-2-amine]
- IC50 (WT PfMDH; 5 mM L-malate, 3 mM NAD+, pH 10.2, read-out: IC50): 1120 ± 30 µM
- Slope (WT PfMDH; Dose 1e-6 M): 0.04587 and 0.04675 and 0.04799
- Slope (WT PfMDH; Dose 0.000237161 M): 0.03425 and 0.02991 and 0.02497
- Slope (WT PfMDH; Dose 0.000332026 M): 0.03311 and 0.03278 and 0.02964
- Slope (WT PfMDH; Dose 0.000464836 M): 0.03179 and 0.02952 and 0.02569
- Slope (WT PfMDH; Dose 0.000650771 M): 0.0287 and 0.02683 and 0.02888
- Slope (WT PfMDH; Dose 0.000911079 M): 0.02984 and 0.02623 and 0.02457
- Slope (WT PfMDH; Dose 0.00127551 M): 0.01897 and 0.02591 and 0.01942
- Slope (WT PfMDH; Dose 0.00178571 M): 0.01091 and 0.01205 and 0.0179
- Slope (WT PfMDH; Dose 0.0025 M): 0.01337 and 0.01172 and 0.009871
- Response (Delta Abs[340 nm]/min) (WT PfMDH; Dose 1.00E-06 M): 4.59E-02 Delta Abs[340 nm]/min and 4.67E-02 Delta Abs[340 nm]/min and 4.80E-02 Delta Abs[340 nm]/min
- Response (Delta Abs[340 nm]/min) (WT PfMDH; Dose 1.28E-03 M): 1.90E-02 Delta Abs[340 nm]/min and 2.59E-02 Delta Abs[340 nm]/min and 1.94E-02 Delta Abs[340 nm]/min
- Response (Delta Abs[340 nm]/min) (WT PfMDH; Dose 1.79E-03 M): 1.09E-02 Delta Abs[340 nm]/min and 1.20E-02 Delta Abs[340 nm]/min and 1.79E-02 Delta Abs[340 nm]/min
- Response (Delta Abs[340 nm]/min) (WT PfMDH; Dose 2.37E-04 M): 3.43E-02 Delta Abs[340 nm]/min and 2.99E-02 Delta Abs[340 nm]/min and 2.50E-02 Delta Abs[340 nm]/min
- Response (Delta Abs[340 nm]/min) (WT PfMDH; Dose 2.50E-03 M): 1.34E-02 Delta Abs[340 nm]/min and 1.17E-02 Delta Abs[340 nm]/min and 9.87E-03 Delta Abs[340 nm]/min
- Response (Delta Abs[340 nm]/min) (WT PfMDH; Dose 3.32E-04 M): 3.31E-02 Delta Abs[340 nm]/min and 3.28E-02 Delta Abs[340 nm]/min and 2.96E-02 Delta Abs[340 nm]/min
- Response (Delta Abs[340 nm]/min) (WT PfMDH; Dose 4.65E-04 M): 3.18E-02 Delta Abs[340 nm]/min and 2.95E-02 Delta Abs[340 nm]/min and 2.57E-02 Delta Abs[340 nm]/min
- Response (Delta Abs[340 nm]/min) (WT PfMDH; Dose 6.51E-04 M): 2.87E-02 Delta Abs[340 nm]/min and 2.68E-02 Delta Abs[340 nm]/min and 2.89E-02 Delta Abs[340 nm]/min
- Response (Delta Abs[340 nm]/min) (WT PfMDH; Dose 9.11E-04 M): 2.98E-02 Delta Abs[340 nm]/min and 2.62E-02 Delta Abs[340 nm]/min and 2.46E-02 Delta Abs[340 nm]/min
- LogIC50 (best-fit value) (WT PfMDH; log(inhibitor) vs. normalized response, variable slope): -2.934 and -2.922
- IC50 (WT PfMDH; log(inhibitor) vs. normalized response, variable slope, read-out: IC50 (best-fit value)): 1160 µM and 1200 µM
- 4PA kinetics raw data (rate) (PfMDH; PfMDH + 63 uM): 0.0233 and 0.02526 and 0.02238
- 4PA kinetics raw data (rate) (PfMDH; PfMDH + 125 uM): 0.01868 and 0.01853 and 0.02184
